Results published in PubChem BioAssay (NCI).
Where “and” joins values, the source holds several entries; their conditions need not be identical. Equal values may be shown once.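 Each compound was tested at five concentrations against cells in 96-well plates for 48 hours. Here, GI50 denotes the concentration required for 50% inhibition of growth. TGI denotes the concentration required for complete inhibition of growth.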

Columns and labels:
Assay in all cases: NCI tumour cell line growth inhibition, 48 h
CCRF-CEM leukemia = tested on: CCRF-CEM leukemia
EKVX NSCLC = tested on: EKVX NSCLC
HCC-2998 colon = tested on: HCC-2998 colon
HOP-62 NSCLC = tested on: HOP-62 NSCLC
HS 578T breast = tested on: HS 578T breast
OVCAR-3 ovarian = tested on: OVCAR-3 ovarian
SK-MEL-2 melanoma = tested on: SK-MEL-2 melanoma
T-47D breast = tested on: T-47D breast
TK-10 renal = tested on: TK-10 renal
U251 CNS = tested on: U251 CNS

Compound	GI50 (CCRF-CEM leukemia) [µM]	TGI (CCRF-CEM leukemia) [µM]	GI50 (EKVX NSCLC) [µM]	TGI (EKVX NSCLC) [µM]	GI50 (HCC-2998 colon)	TGI (HCC-2998 colon)	GI50 (HOP-62 NSCLC) [µM]	TGI (HOP-62 NSCLC) [µM]	GI50 (HS 578T breast) [µM]	TGI (HS 578T breast) [µM]	GI50 (OVCAR-3 ovarian) [µM]	TGI (OVCAR-3 ovarian) [µM]	GI50 (SK-MEL-2 melanoma) [µM]	TGI (SK-MEL-2 melanoma) [µM]	GI50 (T-47D breast) [µM]	TGI (T-47D breast) [µM]	GI50 (TK-10 renal) [µM]	TGI (TK-10 renal) [µM]	GI50 (U251 CNS) [µM]	TGI (U251 CNS) [µM]
Oc1c(-c2nnc(-c3ccccc3Cl)o2)sc2nnc(-c3ccccc3)c(-c3ccccc3)c12	1.43	> 100	3.1	32.2	5.05 µM	> 100 µM	4.99	> 100	3.78	> 100	2.64	8	3.23	15.7	4.78	> 100	5.39	83.7	2.31	> 100
Cc1c[n+](=O)c2ccccc2n1[O-]		> 100		> 100				> 100		> 100		> 100		> 100		> 100		> 100		> 100
C=C(C)[C@@H]1CC[C@]2(C)CC[C@]3(C)[C@H](CC[C@@H]4[C@@]5(C)CC[C@H](O)C(C)(C)[C@@H]5CC[C@]43C)[C@@H]12		48.9		> 100		> 100 µM		> 100		61.7		> 100		> 100		> 100		> 100		41
C=C1C(=O)O[C@H]2[C@H]1CC/C(CNC(=O)/C=C/c1cc(OC)c(OC)c(OC)c1)=C\CC[C@@]1(C)O[C@@H]21	0.478	4.37	2.22	13.8	2.95 µM	6.97 µM	5.29	21.9	4.54	27.9	0.333	1.44	1.73	7.18	2.25	14.8			4.23	16.4
O.O.[NH-]C1(C(=O)O)CCCC1.[NH-]C1(C(=O)O)CCCC1.[Ni+2]		> 100		> 100				> 100	> 100	> 100		> 100		> 100	> 100	> 100	> 100	> 100		> 100
OC(Cc1ccncc1)C(Cl)(Cl)Cl (configuration not stated)	32	> 100	86.3	> 100			> 100	> 100	> 100	> 100	17.4	> 100	> 100	> 100	> 100	> 100	> 100	> 100	> 100	> 100
COc1ncnc2c(-c3ccccc3)cn(COCc3ccccc3)c12	3.58	> 100	2.37	> 100	4.01 µM	> 100 µM	5.78	87.6	7.8	> 100	5.09	20.1	2.08	4.99	3.04	9.84	4.05	> 100	4.06	> 100
COc1cccc(N2CCN(CC(=O)N3CCN(c4nnc(-c5ccc(Cl)cc5)c(-c5ccc(Cl)cc5)n4)CC3)CC2)c1	27.2	> 100	12.3	93.7	> 100 µM	> 100 µM	32.1	> 100	22	85.7	36.9	> 100	35.1	> 100	3.73	47.6	17.3	85.9	16.7	> 100
CC[C@@H]1c2c(C#N)ncn2-c2cnc(Nc3ccc(C(=O)NC4CCN(C5CCN(CC6CC6)CC5)CC4)cc3OC)nc2N1C1CCCC1	0.00738	1.58	1.06	2.46	0.04 µM and 0.0308 µM	1.09 µM and 0.162 µM	0.0403	1.79	0.069	1.78	0.0401	1.63	0.0407	1.82	1.3	2.88	1.03	2.23	0.042	1.48
CSC(=Nc1nnc(-c2ccc([N+](=O)[O-])cc2)s1)SC		> 100		> 100		> 100 µM		53.3		> 81.8		> 89.7		> 91.6		> 100		44.8		58.1
ClCc1cccc2c(CCl)cccc12	2.31	> 100	2.83	16.6	2.48 µM	8.3 µM	3.24	10.2	1.86	6.7	1.76	3.83	20.4	67.4	1.81	10.5	2.28	7.46	2.89	11.6
CN(CCO)CC[C@H](CSc1ccccc1)Nc1ccc(S(=O)(=O)NC(=O)c2ccc(N3CCC([C@@H](O)c4ccccc4-c4ccc(Cl)cc4)CC3)cc2)cc1S(=O)(=O)C(F)(F)F	0.0472	> 100	20.4	> 100	0.286 µM	1.69 µM	5.9	35.5	2.23	7.27	3.71	13	1.41	4.28	4.26	59.6	5.2	19.2	2.82	8.88
COc1ccc2[nH]cc(-c3ccc(-c4c[nH]c5ccc(OC)cc45)s3)c2c1	0.345	13.6	8.33	26.9	2.4 µM	5.13 µM	4.67	10.5	8.99	44.6	10.7	27.5	18.1	51	11.1	41.5	6.29	21.3	3.68	12.6
